Test results as given in article PMC8196580, “Identification of Kaurane-Type Diterpenes as Inhibitors of Leishmania Pteridine Reductase I” (Molecules, 2021).
Where two headings read alike, the source gives them in different places.

Columns and labels:
[1] = test system: L. major; set-up: method as in ChEMBL; details: ref ChEMBL, cited from earlier work
[2] = test system: L. major; experiment: ChEMBL dataset of pIC50 values against L. major used for the RF model (Table S1); format: cell-based, Leishmania major; note: call rule not given here
[3] = ChemBL structures with pIC50 values used for Random forest model construction, L. major
[4] = Active/Inactive class assigned to the ChEMBL pIC50 value for Random forest model construction, ref ChEMBL
[5] = ChemBL structures with pIC50 values used for Random forest model construction (Table S1)
[6] = Active/Inactive class assigned to ChemBL structures for Random forest model construction (Table S1)

Compound	pIC50 Value [1, 3]	Outcome [2, 4]	pIC50 Value [1, 5]	Outcome [2, 6]
c1ccc(-c2nc3cnccn3c2-c2ccccc2)cc1 [CHEMBL3634350]	4.58	Inactive		
COc1ccc(-c2c(-c3ccccc3)nc3cnccn23)cc1 [CHEMBL3634351]	4.76	Inactive		
O=[N+]([O-])c1ccc(-c2c(-c3ccccc3)nc3cnccn23)cc1 [CHEMBL3634352]	4.56	Inactive		
CCOC(=O)c1ccc(-c2c(-c3ccccc3)nc3cnccn23)cc1 [CHEMBL3634353]	4.76	Inactive		
Clc1cccc(-c2c(-c3ccccc3)nc3cnccn23)c1 [CHEMBL3634354]	4.84	Inactive		
Clc1cc(Cl)cc(-c2c(-c3ccccc3)nc3cnccn23)c1 [CHEMBL3634355]	4.99	Inactive		
c1ccc(-c2nc3cnccn3c2-c2ccncc2)cc1 [CHEMBL3634356]	4.70	Inactive		
CN(C)CCNc1nccn2c(I)c(-c3ccccc3)nc12 [CHEMBL3634357]	4.62	Inactive		
CN(C)c1nccn2c(I)c(-c3ccccc3)nc12 [CHEMBL3634358]	5.17	Active		
Ic1c(-c2ccccc2)nc2c(NCCN3CCOCC3)nccn12 [CHEMBL3634359]	4.97	Inactive		
CN(C)CCNc1nccn2c(I)c(-c3ccc(F)cc3)nc12 [CHEMBL3634360]	4.61	Inactive		
CN(C)c1nccn2c(I)c(-c3ccc(F)cc3)nc12 [CHEMBL3634361]	4.00	Inactive		
Fc1ccc(-c2nc3c(NCCN4CCOCC4)nccn3c2I)cc1 [CHEMBL3634362]			5.55	Active
CN(C)CCNc1nccn2c(-c3ccncc3)c(-c3ccccc3)nc12 [CHEMBL3634363]	4.16	Inactive		
CN(C)c1nccn2c(-c3ccncc3)c(-c3ccccc3)nc12 [CHEMBL3634364]	4.50	Inactive		
c1ccc(-c2nc3c(NCCN4CCOCC4)nccn3c2-c2ccncc2)cc1 [CHEMBL3634365]	4.63	Inactive		
CN(C)CCNc1nccn2c(-c3ccncc3)c(-c3ccc(F)cc3)nc12 [CHEMBL3634366]	4.45	Inactive		
CN(C)c1nccn2c(-c3ccncc3)c(-c3ccc(F)cc3)nc12 [CHEMBL3634367]	5.19	Active		
Fc1ccc(-c2nc3c(NCCN4CCOCC4)nccn3c2-c2ccncc2)cc1 [CHEMBL3634368]	4.78	Inactive		

Compound	pIC50 Value [1, 3]	Outcome [2, 4]	pIC50 Value [1, 5]	Outcome [2, 6]
Nc1ccc2ncnc(Nc3ccc(OCc4cccc(F)c4)c(Cl)c3)c2c1 [CHEMBL3637893]	4.98	Inactive		
O=C(CN1CCOCC1)Nc1ccc2ncnc(Nc3ccc(OCc4cccc(F)c4)c(Cl)c3)c2c1 [CHEMBL3637894]	4.91	Inactive		
CN1CCN(S(=O)(=O)c2ccc(-c3ccc4c(Nc5ncc(Cl)cn5)ccnc4c3)cc2)CC1 [CHEMBL3637895]	5.07	Active		
COc1cc(OC)c2c(C)[n+](-c3ccccc3)c(C)cc2c1.[O-][Cl+3]([O-])([O-])[O-] [CHEMBL3706858]	4.58	Inactive		
COc1cc(OC)c2c(C)[n+](-c3ccccc3)c(C)cc2c1.[Cl-] [CHEMBL3706859]	4.33	Inactive		
C=C[C@H]1CN2CCc3c([nH]c4ccccc34)[C@@H]2C[C@@H]1C(/C=C/OC)C(=O)OC (stereo partly shown) [CHEMBL3752140]			5.52	Active
Cc1ccc(Nc2ncnc3ccc([N+](=O)[O-])cc23)cc1C [CHEMBL3758240]	4.45	Inactive		
O=C(CCl)N1c2ccccc2Oc2ccc(Cl)cc21 [CHEMBL3758242]	5.12	Active		
O=C(C(Cl)CCl)N1c2ccccc2Oc2ccccc21 (stereo not shown) [CHEMBL3758248]	5.02	Active		
O=C(CCl)N1c2ccccc2C=Cc2ccccc21 [CHEMBL3758271]	4.32	Inactive		
COc1ccccc1Nc1ncnc2ccc([N+](=O)[O-])cc12 [CHEMBL3758369]			5.36	Active
O=C(CCl)N1c2ccccc2COc2ccc(Cl)cc21 [CHEMBL3758404]	5.14	Active		
Cc1ccc(Cl)cc1Nc1ncnc2ccc([N+](=O)[O-])cc12 [CHEMBL3758550]	4.35	Inactive		
COc1ccc(OC)c(Nc2ncnc3ccc([N+](=O)[O-])cc23)c1 [CHEMBL3758611]	4.91	Inactive		
O=[N+]([O-])c1ccc2ncnc(Nc3ccccc3Cl)c2c1 [CHEMBL3758623]	5.19	Active		
N#CCC(=O)N1c2ccccc2Oc2ccccc21 [CHEMBL3758694]	4.00	Inactive		
CSc1ccc(Nc2ncnc3ccc([N+](=O)[O-])cc23)cc1 [CHEMBL3758748]			5.73	Active
O=C(CCCl)N1c2ccccc2Oc2ccc(Cl)cc21 [CHEMBL3759105]	4.80	Inactive		
O=C(CCl)N1c2cc(Cl)ccc2Oc2ccc(Cl)cc21 [CHEMBL3759123]	5.02	Active		

Compound	pIC50 Value [1, 3]	Outcome [2, 4]	pIC50 Value [1, 5]	Outcome [2, 6]
Cc1ccc(Nc2ncnc3ccc([N+](=O)[O-])cc23)cc1 [CHEMBL3759143]	4.62	Inactive		
O=C(CBr)N1c2ccccc2Oc2ccc(Cl)cc21 [CHEMBL3759174]	4.00	Inactive		
O=C(CCCCl)N1c2ccccc2Oc2ccc(Cl)cc21 [CHEMBL3759213]	4.00	Inactive		
O=C(CCl)N1c2ccccc2Oc2ccc(C(F)(F)F)cc21 [CHEMBL3759243]	5.02	Active		
O=C(C(Cl)Cl)N1c2ccccc2Oc2ccccc21 [CHEMBL3759299]	4.09	Inactive		
ClCCN1c2ccccc2Oc2ccc(Cl)cc21 [CHEMBL3759618]	4.00	Inactive		
O=C(CCl)Nc1cc(Cl)ccc1Oc1ccccc1 [CHEMBL3759632]	4.37	Inactive		
CCc1ccc(Nc2ncnc3ccc([N+](=O)[O-])cc23)cc1 [CHEMBL3759644]	4.42	Inactive		
CC(Cl)C(=O)N1c2ccccc2Oc2ccccc21 (stereo not shown) [CHEMBL3759769]	4.00	Inactive		
O=C(CCCl)N1c2ccccc2Oc2ccccc21 [CHEMBL3759988]	4.41	Inactive		
CSc1cccc(Nc2ncnc3ccc([N+](=O)[O-])cc23)c1 [CHEMBL3760067]	4.70	Inactive		
O=[N+]([O-])c1ccc2ncnc(Nc3ccc(Br)cc3)c2c1 [CHEMBL3760107]	4.21	Inactive		
CC1=C(C(=O)/C=C/c2cccc([N+](=O)[O-])c2)C(c2ccccc2)NC(=O)N1C (stereo not shown) [CHEMBL3785174]			5.71	Active
CC(=O)C1=C(C)NC(=O)NC1c1cccc([N+](=O)[O-])c1 (stereo not shown) [CHEMBL3785264]			5.61	Active
CC1=C(C(=O)/C=C/c2ccc(Cl)cc2)C(c2ccccc2)NC(=O)N1C (stereo not shown) [CHEMBL3785670]			5.77	Active
CC(=O)C1=C(CNc2ccc(C(=O)/C=C/c3ccc(Cl)cc3)cc2)N(C)C(=O)NC1c1ccccc1 (stereo not shown) [CHEMBL3785674]			5.97	Active
CC1=C(C(=O)Nc2ccc(C(=O)/C=C/c3ccc(O)cc3)cc2)C(c2cccc(O)c2)NC(=S)N1 (stereo not shown) [CHEMBL3785704]			5.98	Active
CC(=O)C1=C(C)N(C)C(=O)NC1c1ccccc1 (stereo not shown) [CHEMBL3785882]			5.59	Active
